Measured values from BindingDB's records for doi:10.3109/14756366.2010.491795 (Dumlupinar University, 2011).

Assays:
[1] = molecular target: T1, Carbonic anhydrase 1 (Homo sapiens, UniProt P00915); assay: Hydratase Activity Assay
[2] = molecular target: T2, Carbonic anhydrase 2 (Homo sapiens, UniProt P00918); assay: Hydratase Activity Assay
[3] = molecular target: T1, Carbonic anhydrase 1; assay: Esterase Activity Assay; conditions: pH 7.4
Procedure: (§1) The enzymatic reaction, in a total volume of 3 mL, contained 1.4 mL of 0.05 M tris-SO4 buffer (pH 7.4), 1 mL of 3 mM 4-nitrophenylacetate, 0.5 mL H2O and 0.1 mL enzyme solution. A reference measurement was obtained by preparing the same cuvette without any enzyme solution.

[4] = molecular target: T2, Carbonic anhydrase 2; assay: Esterase Activity Assay; conditions: pH 7.4
Procedure: as §1

[5] = molecular target: T1, Carbonic anhydrase 1; assay: Enzyme Activity Assay
[6] = molecular target: T2, Carbonic anhydrase 2; assay: Enzyme Activity Assay

T1 sequence (P00915 whole entry): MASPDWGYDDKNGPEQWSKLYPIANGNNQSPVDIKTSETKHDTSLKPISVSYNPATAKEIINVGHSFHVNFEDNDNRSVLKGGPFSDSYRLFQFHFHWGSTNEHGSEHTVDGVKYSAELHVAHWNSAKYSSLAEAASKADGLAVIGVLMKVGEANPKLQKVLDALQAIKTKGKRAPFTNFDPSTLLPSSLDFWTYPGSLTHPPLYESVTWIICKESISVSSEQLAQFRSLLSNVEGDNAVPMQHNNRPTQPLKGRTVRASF

Row | Structure (SMILES) | IC50 [1] [nM] | IC50 [2] [nM] | IC50 [3] [nM] | IC50 [4] [nM] | Ki [5] [nM] | Ki [6] [nM]
1 | CC(=O)Cn1c(C)cc2cc(-n3nc(C(=O)Nc4nnc(S(N)(=O)=O)s4)c(C(=O)c4ccccc4)c3-c3ccccc3)ccc21 [4-Benzoyl-1-(2-methyl-1-(2-oxopropyl)-1H-indol-5-yl)-5-phenyl-N-(5-sulphamoyl-1,3,4-thiadiazol-2-yl)-1H-pyrazole-3-carboxamide (18)] | 750 | 600 | 2400 | 1740 | 6670 | 3920
2 | NS(=O)(=O)c1nnc(NC(=O)c2nn(-c3ccc(NN=C(C(=O)c4ccccc4)C(=O)c4ccccc4)cc3)c(-c3ccccc3)c2C(=O)c2ccccc2)s1 [4-Benzoyl-1-(4-(2-(1,3-dioxo-1,3-diphenylpropan-2-ylidene)hydrazinyl)phenyl)-5-phenyl-N-(5-sulphamoyl-1,3,4-thiadiazol-2-yl)-1H-pyrazole-3-carboxamide (13)] | 700 | 1000 | 4800 | 1420 | 1020 | 3180
3 | CC(=O)/C(=N\Nc1ccc(-n2nc(C(=O)Nc3nnc(S(N)(=O)=O)s3)c(C(=O)c3ccccc3)c2-c2ccccc2)cc1)C(=O)c1ccccc1 [4-Benzoyl-1-(4-(2-(1,3-dioxo-1-phenylbutan-2-ylidene)hydrazinyl)phenyl)-5-phenyl-N-(5-sulphamoyl-1,3,4-thiadiazol-2-yl)-1H-pyrazole-3-carboxamide (12)] | 164 | 160 | 1000 | 370 | 1530 | 244
4 | CC(=O)C(=NNc1ccc(-n2nc(C(=O)Nc3nnc(S(N)(=O)=O)s3)c(C(=O)c3ccccc3)c2-c2ccccc2)cc1)C(C)=O [4-Benzoyl-1-(4-(2-(2,4-dioxopentan-3-ylidene)hydrazinyl)phenyl)-5-phenyl-N-(5-sulphamoyl-1,3,4-thiadiazol-2-yl)-1H-pyrazole-3-carboxamide (11)] | 330 | 80 | 570 | 130 | 572 | 103
5 | NS(=O)(=O)c1nnc(NC(=O)c2nn(-c3ccc(/N=N/c4c(O)ccc5ccccc45)cc3)c(-c3ccccc3)c2C(=O)c2ccccc2)s1 [4-Benzoyl-1-(4-((2-hydroxynaphthalen-1-yl)diazenyl)phenyl)-5-phenyl-N-(5-sulphamoyl-1,3,4-thiadiazol-2-yl)-1H-pyrazole-3-carboxamide (8)] | 2860 | 2400 | 4750 | 2100 | 5830 | 848
6 | NS(=O)(=O)c1nnc(NC(=O)c2nn(-c3ccc(/N=N/c4ccc(O)cc4)cc3)c(-c3ccccc3)c2C(=O)c2ccccc2)s1 [4-Benzoyl-1-(4-((4-hydroxyphenyl)diazenyl)phenyl)-5-phenyl-N-(5-sulphamoyl-1,3,4-thiadiazol-2-yl)-1H-pyrazole-3-carboxamide (9)] | 200 | 800 | 230 | 30 | 95 | 18
7 | NS(=O)(=O)c1nnc(NC(=O)c2nn(-c3ccc(I)cc3)c(-c3ccccc3)c2C(=O)c2ccccc2)s1 [4-Benzoyl-1-(4-iodophenyl)-5-phenyl-N-(5-sulphamoyl-1,3,4-thiadiazol-2-yl)-1H-pyrazole-3-carboxamide (10)] | 270 | 180 | 350 | 50 | 360 | 56
8 | CCOC(=O)C(=NNc1ccc(-n2nc(C(=O)Nc3nnc(S(N)(=O)=O)s3)c(C(=O)c3ccccc3)c2-c2ccccc2)cc1)C(=O)OCC [Diethyl 2-(2-(4-(4-benzoyl-5-phenyl-3-(5-sulphamoyl-1,3,4-thiadiazol-2-ylcarbamoyl)-1H-pyrazol-1-yl)phenyl)hydrazono)malonate (16)] | 850 | 1000 | 380 | 70 | 300 | 65
9 | CCOC(=O)/C(=N/Nc1ccc(-n2nc(C(=O)Nc3nnc(S(N)(=O)=O)s3)c(C(=O)c3ccccc3)c2-c2ccccc2)cc1)C(=O)c1ccccc1 [Ethyl 2-(2-(4-(4-benzoyl-5-phenyl-3-(5-sulphamoyl-1,3,4-thiadiazol-2-ylcarbamoyl)-1H-pyrazol-1-yl)phenyl)hydrazono)-3-oxo-3-phenylpropanoate (14)] | 1320 | 1300 | 800 | 850 | 1530 | 498
10 | CCOC(=O)/C(=N/Nc1ccc(-n2nc(C(=O)Nc3nnc(S(N)(=O)=O)s3)c(C(=O)c3ccccc3)c2-c2ccccc2)cc1)C(C)=O [Ethyl 2-(2-(4-(4-benzoyl-5-phenyl-3-(5-sulphamoyl-1,3,4-thiadiazol-2-ylcarbamoyl)-1H-pyrazol-1-yl)phenyl)hydrazono)-3-oxobutanoate (15)] | 1210 | 800 | 910 | 140 | 1190 | 125
11 | CC(=O)/C(=N\Nc1ccc(-n2nc(C(=O)Nc3nnc(S(N)(=O)=O)s3)c(C(=O)c3ccccc3)c2-c2ccccc2)cc1)C(=O)OC(C)(C)C [tert-Butyl 2-(2-(4-(4-benzoyl-5-phenyl-3-(5-sulphamoyl-1,3,4-thiadiazol-2-ylcarbamoyl)-1H-pyrazol-1-yl)phenyl)hydrazono)-3-oxobutanoate (17)] | 780 | 200 | 330 | 80 | 310 | 108
